# Patent US10941126B2, “Bridged bicycloalkyl-substituted aminothiazoles and their methods of use” (Temple University—Of The Commonwealth System of Higher …, priority 2017, dated 2021)
# Key:
# [1] = test system: SW48 and HCT116 cells; test: qPCR for ERV expression; assay type: cell-based, human; conditions: Four-day treatment
# Method: Total RNA was extracted using TRIzol reagent (Invitrogen) following the manufacturer's protocol and RNA concentrations were measured using Nanodrop. cDNAs were synthesized using High Capacity cDNA Reverse Transcription Kit (ThermoFisher) and qPCR was performed using either ready-made TaqMan® assays or SYBR-green using custom-designed primers. All the data were analyzed using Applied Biosystems software (StepOne™ Software V2.3). For all experiments, relative expression levels of the target genes were determined by calculating the 2^−ΔΔCt values. All experiments were performed at least in triplicates. Either GAPDH or 18S rRNA was used as an internal normalization control for protein coding genes. RPLPO was used as an internal normalization control for ERVs. All SYBR-green primers were described previously and are listed in Table 1 along with TaqMan® probes used.
# [2] = test system: SMARCA4; test: Phosphoproteomics (LC-MS/MS) in YB5 cells; assay type: cell-based, human; conditions: 500 nM, 4 hr
# Method: YB5 cells were treated with or without 500 nM MC180295 for 4 hours. Nuclear fraction was enriched using a hypotonic lysis buffer as previously described (Boden, G., Homko, C., Barrero, C. A., Stein, T. P., Chen, X., Cheung, P., Fecchio, C., Koller, S., and Merali, S. (2015), Sci Transl Med 7, 304-307). Proteins from the nuclear fraction were extracted with M-PER Mammalian Protein Extraction Reagent (Thermo Scientific, #78501) in the presence of protease and phosphatase inhibitors (Halt™ Protease Inhibitor Cocktail, #87785 and Halt™ Phosphatase Inhibitor Single-Use Cocktail, #78428). Phosphoproteins were enriched from 500 μg of nuclear extracted proteins, using a phosphoprotein purification kit (QIAGEN, #37101). Both samples were processed using in-StageTip method for digestion and peptide purification before performing LC-MS/MS proteomics analysis. The mass spectrometry proteomics data have been deposited to the ProteomeXchange Consortium via the PRIDE (Vizcaino, J. A., Csordas, A., del-Toro, N., Dianes, J. A., Griss, J., Lavidas, I., Mayer, G., Perez-Riverol, Y., Reisinger, F., Tement, T., et al. (2016). 2016 update of the PRIDE database and its related tools. Nucleic Acids Res 44, D447-456) partner repository with the dataset identifier PXD008040. […]
# [3] = test system: YB5; test: Cell cycle analysis and sub-G1 (propidium iodide); assay type: cell-based, human; conditions: four-day drug treatment
# Method: For drug screening and dose response validations, GFP positive cells were detected by Millipore Guava flow cytometer (EMD, Millipore). Cell cycle analysis was performed using BD FACSCalibur™ by propidium iodide staining four days after drug treatment. Sub-G1 population percentage was also included to measure apoptotic cell proportion. Data were analyzed using FlowJo software version 10.2. For the cell differentiation analysis, cells were washed and stained with propidium iodide (PI), CD11 b (BD Biosciences, #562793) and the isotype control IgG (BD Biosciences, #555748). Flow cytometry analysis was performed on a Millipore Guava flow cytometer (EMD, Millipore). For the ID8 in vivo experiments, ascites was drained from 5-10 mice per group and incubated in ACK buffer (Thermo Fisher) to lyse red blood cells for 10 minutes, then washed. Ascites from each mouse was individually lysed and prepared for flow cytometry. Mononuclear cells collected were cultured for 4 hours in RPMI with 5% Fetal Bovine Serum and in the presence of Cell Stimulation Cocktail (plus protein transport inhibitors; eBioscience). […] Flow cytometry acquisition was performed on an LSRII cytometer (BD Biosciences) and data were analyzed using FlowJo software version 10.2.
# [4] = test system: panel of 250 kinases; test: 250 kinome screening at 1 μM; assay type: biochemical, human
# Method: (§1) HDAC inhibitory activity assays were performed using FLUOR DE LYS® HDAC fluorometric activity assay kit from Enzo following the manufacturer's instructions. GloMax®-Multi Detection System (Promega) was used to read the fluorescence signals. Histone methyltransferase and demethylase enzymatic assays were performed by BPS Bioscience at 10 μM in duplicates. Kinase enzymatic assays were performed by Nanosyn using microfluidic technology. 250 kinome screening was done in duplicates using MC180295 at 1 μM. IC50 curves against 10 CDKs were created for MC180295. The human kinome tree was annotated using the online Kinome Render software (Chartier, M., Chénard, T., Barker, J., and Najmanovich, R. (2013). PeerJ 1, e126). Isotope kinase assay was performed using previously described methods (Garriga, J., Peng, J., Parreño, M., Price, D. H., Henderson, E. E., and Graña, X. (1998). Oncogene 17, 3093-3102) using recombinant active full-length CDK9/CyclinT1 (Millipore, 14-685) and SMARCA4 (Abcam, ab82237) in the presence or absence of CDK9 inhibitors.
# [5] = biological target: T1, CDK9 (Homo sapiens, UniProt P50750); test: Kinase enzymatic assay (Nanosyn, microfluidic), IC50 curves against CDKs; assay type: biochemical
# T1 construct: Nanosyn (contract assay)
# T1 sequence (P50750 whole entry): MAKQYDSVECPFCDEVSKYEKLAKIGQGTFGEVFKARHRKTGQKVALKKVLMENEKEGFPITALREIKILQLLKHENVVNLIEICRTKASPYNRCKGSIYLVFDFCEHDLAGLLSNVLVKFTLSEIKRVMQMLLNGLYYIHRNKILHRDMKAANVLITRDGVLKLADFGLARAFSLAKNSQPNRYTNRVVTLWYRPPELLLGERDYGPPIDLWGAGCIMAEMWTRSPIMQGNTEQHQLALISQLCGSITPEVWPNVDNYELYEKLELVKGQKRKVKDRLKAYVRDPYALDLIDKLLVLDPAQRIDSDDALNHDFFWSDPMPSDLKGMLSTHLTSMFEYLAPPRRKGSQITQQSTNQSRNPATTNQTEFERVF
# T1 sequence (O60563 whole entry partner): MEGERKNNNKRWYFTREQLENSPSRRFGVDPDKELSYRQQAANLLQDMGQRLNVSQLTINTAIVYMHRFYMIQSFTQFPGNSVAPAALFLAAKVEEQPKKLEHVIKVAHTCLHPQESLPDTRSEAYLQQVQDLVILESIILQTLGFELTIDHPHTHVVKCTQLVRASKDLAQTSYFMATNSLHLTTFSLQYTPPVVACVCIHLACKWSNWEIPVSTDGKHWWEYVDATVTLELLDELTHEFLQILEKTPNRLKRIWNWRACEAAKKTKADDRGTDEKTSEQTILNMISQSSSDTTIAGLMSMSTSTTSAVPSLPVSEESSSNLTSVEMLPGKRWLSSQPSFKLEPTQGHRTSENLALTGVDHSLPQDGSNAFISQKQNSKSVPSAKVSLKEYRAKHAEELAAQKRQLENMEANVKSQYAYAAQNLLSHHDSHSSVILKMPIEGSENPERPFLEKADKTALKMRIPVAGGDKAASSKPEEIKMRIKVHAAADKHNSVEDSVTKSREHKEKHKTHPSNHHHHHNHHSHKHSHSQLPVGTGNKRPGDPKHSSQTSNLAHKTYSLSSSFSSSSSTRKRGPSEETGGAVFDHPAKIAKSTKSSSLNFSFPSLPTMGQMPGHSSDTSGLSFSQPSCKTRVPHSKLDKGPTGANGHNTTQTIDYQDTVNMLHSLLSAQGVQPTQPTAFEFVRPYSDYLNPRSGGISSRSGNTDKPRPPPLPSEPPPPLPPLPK
# Method: as §1
# [6] = test system: YB5 cells; test: GFP reactivation in YB5 cells (flow cytometry); assay type: cell-based, human; conditions: YB5 cells, one-time 4-day treatment
structure (smiles),measurement,setting,value
Nc1nc(N[C@H]2CC3CCC2C3)sc1C(=O)c1ccccc1[N+](=O)[O-] (some centres unmarked) [MC180295],ERV expression,[1],activated the expression of several ERVs
same,phosphorylation of SMARCA4 serine/threonine residues,[2],dephosphorylated
same,cell cycle arrest,[3],no cell cycle arrest
same,sub-G1 subpopulation,[3],increase in the sub-G1 subpopulation
same,selectivity against a panel of 250 kinases,[4],highly selective against CDKs
same,IC50,[5],5 nM
same,selectivity for CDK9 over other CDKs,[5]; 10 different CDKs,at least 22 fold
same,concentration at which active (GFP re-expression),[6],50 nM
